Converted amounts (≈) assume the structure as drawn.
Key:
Type in all cases: cell-based
[1] = tested on: LTC4-induced contraction of strips of guinea pig lung; experiment: inhibition of LTC4-induced contraction of strips of guinea pig lung; conditions: Cavia porcellus; LTC4 3 ng/ml; indomethacin-pretreated strips (10^-6 g/ml); test substance added after maximum contraction plateau; 37° C.; read-out: IC50 with respect to LTC4
Method: (§1) The leukotriene-antagonistic action of the substances of the general formula I according to the invention is determined by the inhibition of the leukotriene-induced contraction of strips of guinea pig lung. The method which is used is a modification of the test described by Foreman, Shelly and Weber (Arch. Int. Pharmacodyn. 278, 193-206 (1985)).
(§2) Guinea pigs are sacrificed by an overdose of ether. The thoracic cavity is opened; the lungs are removed and cut into strips 5 cm long, which are stored in physiological saline. For the measurement, the strips of lung are placed in an organ bath filled with Ringer's solution which is equilibrated at 37° C. and through which carbogen (O2 /CO2 95:5 parts by volume) is passed. The strips are left to equilibrate under a load of 0.5-1 g for 30-60 minutes. The strips of lung are pretreated with indomethacin (10^-6 g/ml of bath liquid) before the test starts.
(§3) The contraction is induced by adding LTC4, LTD4 or LTE4 in a concentration of 3 ng/ml of bath liquid. The test substances are administered therapeutically into the bath, after the maximum contraction plateau has been reached, in several concentrations and at time intervals of 10 minutes. 6-12 strips of lung are used for each concentration of the test substance.
(§4) The concentrations of the test substances at which the contraction is reduced by 50% (IC50) are indicated in μg/ml.

[2] = tested on: LTD4-induced contraction of strips of guinea pig lung; experiment: inhibition of LTD4-induced contraction of strips of guinea pig lung; conditions: Cavia porcellus; LTD4 3 ng/ml; indomethacin-pretreated strips (10^-6 g/ml); test substance added after maximum contraction plateau; 37° C.; read-out: IC50 with respect to LTD4
Method: as §1, §2, §3, §4

[3] = tested on: LTE4-induced contraction of strips of guinea pig lung; experiment: inhibition of LTE4-induced contraction of strips of guinea pig lung; conditions: Cavia porcellus; LTE4 3 ng/ml; indomethacin-pretreated strips (10^-6 g/ml); test substance added after maximum contraction plateau; 37° C.; read-out: IC50 with respect to LTE4
Method: as §1, §2, §3, §4

Row | IC50 [1] | IC50 [2] | IC50 [3] | SMILES
1 | 3 to 6 µg/mL (≈ 7.24 to 14.5 µM) | 3 to 6 µg/mL (≈ 7.24 to 14.5 µM) | 3 µg/mL (≈ 7.24 µM) | O=C(O)CCSCC(O)Cc1cccc(C2CCCC2)c1OCc1ccccc1 (racemic) [Compound C, (6RS)-7-(2-Benzyloxy-3-cyclopentylphenyl)-6-hydroxy-4-thiaheptanoic acid]
2 | 6 to 10 µg/mL (≈ 15.2 to 25.3 µM) | 3 µg/mL (≈ 7.6 µM) | 1 to 3 µg/mL (≈ 2.53 to 7.6 µM) | COC(=O)CCSCC(O)Cc1cc(Cl)ccc1OCc1ccccc1 (racemic) [Compound D, Methyl (6RS)-7-(2-benzyloxy-5-chlorophenyl)-6-hydroxy-4-thiaheptanoate]
3 | 6 to 10 µg/mL (≈ 15.5 to 25.9 µM) | 6 to 10 µg/mL (≈ 15.5 to 25.9 µM) | 1 to 3 µg/mL (≈ 2.59 to 7.76 µM) | OCCSCC(O)Cc1cccc(C2CCCC2)c1OCc1ccccc1 (racemic) [Compound E, (5RS)-6-(2-benzyloxy-3-cyclopentylphenyl)-3-thiahexane-1,5-diol]
4 | 0.6 µg/mL (≈ 1.4 µM) | 1 µg/mL (≈ 2.33 µM) | 3 µg/mL (≈ 7 µM) | COC(=O)CCSCC(O)Cc1cccc(C2CCCC2)c1OCc1ccccc1 (racemic) [Compound B, Methyl (6RS)-7-(2-benzyloxy-3-cyclopentylphenyl)-6-hydroxy-4-thiaheptanoate]
5 | 0.6 to 1 µg/mL (≈ 1.66 to 2.77 µM) | 0.6 µg/mL (≈ 1.66 µM) | 0.6 to 1 µg/mL (≈ 1.66 to 2.77 µM) | COC(=O)CCSCC(O)Cc1ccccc1OCc1ccccc1 (racemic) [Compound A, Methyl (6RS)-7-(2-benzyloxyphenyl)-6-hydroxy-4-thiaheptanoate]

From US4855323A, “Leukotriene antagonists, a process for the preparation thereof, and the use thereof for the treatment of diseases” (Hoechst Aktiengesellschaft, priority 1987, dated 1989)
